# From patent US20220354847A1, “THIAMINE THERAPY FOR FATTY LIVER ASSOCIATED DISEASES” (priority 2019, published 2022)
# Key:
# [1] = test system: hepatic steatosis; settings: literature (Biomedical Reports 2013; Journal of Hepatology 2016); cited from earlier work
# [2] = test system: liver histology; settings: literature, cited from earlier work; for associated adverse effects: long-term treatment
# [3] = test system: hepatic alterations caused by a high-fat diet; settings: mice; literature; cited from earlier work
# [4] = test system: hepatic steatosis in lambs grown on the HC diet
# [5] = test system: liver gene expression
# [6] = test system: lambs grown on the HC diet; settings: within one week of treatment; saline-treated HC group 77.2 mg/dL
# [7] = test system: circulating leukocytes gene expression; settings: FIG. 14A
compound,measurement,setting,value
N[C@@H](CC(=O)N1CCn2c(nnc2C(F)(F)F)C1)Cc1cc(F)c(F)cc1F [Sitagliptin],effect on hepatic steatosis / liver fat,[1],ineffective
CN(C)C(=N)N=C(N)N [metformin],effect on hepatic steatosis / liver fat,[1],no effect
CCc1ccc(CCOc2ccc(CC3SC(=O)NC3=O)cc2)nc1 (stereo not drawn) [pioglitazone],associated adverse effects,[2],weight gain
O=C1CCC(N2C(=O)c3ccccc3C2=O)C(=O)N1 (stereo not drawn) [thalidomide],hepatic alterations caused by a high-fat diet,[3],improvements
Cc1ncc(C[n+]2csc(CCO)c2C)c(N)n1 [thiamine],"hepatocellular steatosis (macro-vesicular or micro-vesicular, histology score 0 to 3)","[4]; HC vs LC and THC, FIG. 11B, 11D",significantly increased in the HC compared to both the LC and THC groups
same,"hepatic steatosis (liver fat content, percentage of wet liver weight)","[4]; THC group, HC diet + thiamine 300 mg/animal s.c. 3 then 5 times a week for the last 85 of 135 days, HC=8.1%, LC 3.8%, P<0.0001",4.8%
same,hepatic index (liver weight/BW),"[4]; THC vs HC, FIG. 11C",no significant effect
same,liver expression of APOB,[5]; FIG. 13C,No effects
same,"liver expression of the energy-sensing axis and of the transporters of NEFA (CD36, SLC27A6, SLC27A5)",[5]; FIG. 13D,No effect
same,"liver gene expression of NFKB1, IL1B, CCL2 and IL8",[5]; FIG. 14B,No significant alterations
same,liver expression of catalase,[5]; FIG. 14C,did not affect
same,liver expression of TNF,"[5]; P=0.005, FIG. 14B",lowered
same,liver expression of superoxide dismutase 2 (SOD2),"[5]; P=0.02, FIG. 14C",increase
same,"liver expression of genes coding for AMPK (PRKAA2), PGC-1α (PPARGC1A) and PPAR-α (PPARA)",[5]; THC vs HC,did not affect
same,Perilipin 2 transcripts in liver,"[5]; THC vs HC, P=0.002, FIG. 13C",lowered Perilipin 2 transcripts substantially
same,liver expression of SIRT1,"[5]; between the treatments, FIG. 13A",not different
same,abundance of MTTP transcripts in liver,"[5]; compared with untreated HC group, P=0.001",increased
same,liver expression of glutathione peroxidase 1 (GPX1),[5]; in vivo,no detected treatment effects
same,inflammatory state increased by the HC diet (proinflammatory gene expression),"[5]; leukocyte and liver, FIG. 14 legend",partially alleviated
same,blood glucose levels,[6],71.7 mg/dL
same,"leukocyte expression of IL1B, TNF and IFNG",[7],No treatment effects
same,leukocyte expression of CXCL8,"[7]; thiamine-treated animals, P=0.05",lower expression
vitamin E,effect on liver histology,[2]; biopsy-proven NASH patients,improve liver histology
same,associated adverse effects,[2],modest increase in the risk for prostate cancer
